# Calls of active or inactive are those of the source. For most assays here, no stated cut-off is given here; in the data, actives have a measured Kd and inactives only a lower limit.
# How the values were obtained:
# [1] = target: Receptor-interacting serine/threonine-protein kinase 2 (Homo sapiens, UniProt O43353)
# [2] = target: Epithelial discoidin domain-containing receptor 1 (Homo sapiens, UniProt Q08345)
# [3] = target: T1, Succinate--CoA ligase [ADP-forming] subunit beta, mitochondrial (Homo sapiens, UniProt Q9P2R7)
# T1 sequence (Q9P2R7 whole entry): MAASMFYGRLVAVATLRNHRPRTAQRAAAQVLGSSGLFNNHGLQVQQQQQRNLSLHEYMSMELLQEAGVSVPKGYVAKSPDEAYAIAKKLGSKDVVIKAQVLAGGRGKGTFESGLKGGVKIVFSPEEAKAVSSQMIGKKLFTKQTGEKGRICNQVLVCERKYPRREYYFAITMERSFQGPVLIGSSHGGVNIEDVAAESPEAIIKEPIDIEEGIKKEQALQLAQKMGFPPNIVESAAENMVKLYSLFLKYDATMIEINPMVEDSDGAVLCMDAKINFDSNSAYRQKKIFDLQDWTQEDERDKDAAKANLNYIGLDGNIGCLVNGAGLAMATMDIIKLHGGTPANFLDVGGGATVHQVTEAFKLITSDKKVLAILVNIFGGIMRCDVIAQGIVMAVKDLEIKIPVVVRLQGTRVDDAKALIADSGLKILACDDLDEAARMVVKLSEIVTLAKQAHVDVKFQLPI
# [4] = target: Calcium/calmodulin-dependent protein kinase type II subunit delta (Homo sapiens, UniProt Q13557)
# [5] = target: Serine/threonine-protein kinase PAK 2 (Homo sapiens, UniProt Q13177)
# [6] = target: T2, AarF domain-containing protein kinase 1 (Homo sapiens, UniProt Q86TW2)
# T2 sequence (Q86TW2 whole entry): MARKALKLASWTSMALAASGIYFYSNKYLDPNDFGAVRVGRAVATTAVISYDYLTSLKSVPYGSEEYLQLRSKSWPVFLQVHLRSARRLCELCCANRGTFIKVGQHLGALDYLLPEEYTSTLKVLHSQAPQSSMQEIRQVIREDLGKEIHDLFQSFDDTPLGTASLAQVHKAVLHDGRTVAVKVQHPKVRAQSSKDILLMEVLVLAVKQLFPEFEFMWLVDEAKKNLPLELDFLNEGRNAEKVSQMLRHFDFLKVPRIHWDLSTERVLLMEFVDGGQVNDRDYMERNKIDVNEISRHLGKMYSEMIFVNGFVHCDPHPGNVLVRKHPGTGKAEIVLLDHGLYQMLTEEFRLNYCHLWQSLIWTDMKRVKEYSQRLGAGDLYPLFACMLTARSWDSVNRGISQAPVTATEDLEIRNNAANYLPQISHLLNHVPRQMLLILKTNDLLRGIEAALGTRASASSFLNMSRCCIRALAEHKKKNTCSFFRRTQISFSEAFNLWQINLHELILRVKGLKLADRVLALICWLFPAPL
# [7] = target: Tyrosine-protein kinase BTK (Homo sapiens, UniProt Q06187)
# [8] = target: T3, Serine/threonine-protein kinase PLK4 (Homo sapiens, UniProt O00444)
# T3 sequence (O00444 whole entry): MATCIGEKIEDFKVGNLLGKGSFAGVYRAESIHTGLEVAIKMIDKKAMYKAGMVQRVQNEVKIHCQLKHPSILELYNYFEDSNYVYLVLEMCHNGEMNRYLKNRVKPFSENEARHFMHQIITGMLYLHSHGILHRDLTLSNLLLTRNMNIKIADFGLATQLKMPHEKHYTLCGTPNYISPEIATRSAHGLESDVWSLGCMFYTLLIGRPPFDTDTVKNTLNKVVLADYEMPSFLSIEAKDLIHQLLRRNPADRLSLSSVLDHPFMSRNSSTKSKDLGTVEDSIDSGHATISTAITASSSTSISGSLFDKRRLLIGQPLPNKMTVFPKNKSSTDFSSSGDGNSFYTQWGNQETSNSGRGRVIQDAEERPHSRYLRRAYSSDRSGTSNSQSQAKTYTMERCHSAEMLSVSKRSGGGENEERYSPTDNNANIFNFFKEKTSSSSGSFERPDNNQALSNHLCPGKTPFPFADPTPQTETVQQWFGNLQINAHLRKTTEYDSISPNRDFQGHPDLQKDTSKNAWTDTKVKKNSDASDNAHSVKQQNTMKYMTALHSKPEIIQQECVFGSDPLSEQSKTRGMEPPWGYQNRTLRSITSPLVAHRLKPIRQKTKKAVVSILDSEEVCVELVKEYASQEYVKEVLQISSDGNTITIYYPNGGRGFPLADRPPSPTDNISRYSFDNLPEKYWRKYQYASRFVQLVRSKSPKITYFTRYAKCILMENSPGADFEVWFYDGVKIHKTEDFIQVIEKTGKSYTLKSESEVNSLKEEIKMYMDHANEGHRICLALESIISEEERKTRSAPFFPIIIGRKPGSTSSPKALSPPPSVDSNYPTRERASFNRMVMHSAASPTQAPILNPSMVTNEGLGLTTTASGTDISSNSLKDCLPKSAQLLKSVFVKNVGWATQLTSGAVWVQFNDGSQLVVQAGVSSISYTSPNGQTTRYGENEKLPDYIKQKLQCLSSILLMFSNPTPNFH
# Chain of Serine/threonine-protein kinase PAK 2 (Q13177 whole entry, the tested form may be a part): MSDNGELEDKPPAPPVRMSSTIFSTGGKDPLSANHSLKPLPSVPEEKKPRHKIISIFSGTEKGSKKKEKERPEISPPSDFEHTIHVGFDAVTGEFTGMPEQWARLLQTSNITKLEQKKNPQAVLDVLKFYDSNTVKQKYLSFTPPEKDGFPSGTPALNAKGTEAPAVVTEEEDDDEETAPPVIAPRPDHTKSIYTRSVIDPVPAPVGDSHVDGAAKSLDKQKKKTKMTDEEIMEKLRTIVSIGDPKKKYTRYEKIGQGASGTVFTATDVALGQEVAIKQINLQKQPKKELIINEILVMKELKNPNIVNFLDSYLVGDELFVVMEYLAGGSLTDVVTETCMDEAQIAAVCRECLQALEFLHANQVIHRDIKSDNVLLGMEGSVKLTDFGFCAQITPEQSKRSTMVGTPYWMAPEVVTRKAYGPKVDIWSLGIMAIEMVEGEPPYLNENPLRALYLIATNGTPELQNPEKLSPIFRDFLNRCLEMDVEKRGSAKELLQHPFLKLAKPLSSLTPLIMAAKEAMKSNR
# Chain of Epithelial discoidin domain-containing receptor 1 (Q08345 whole entry, the tested form may be a part): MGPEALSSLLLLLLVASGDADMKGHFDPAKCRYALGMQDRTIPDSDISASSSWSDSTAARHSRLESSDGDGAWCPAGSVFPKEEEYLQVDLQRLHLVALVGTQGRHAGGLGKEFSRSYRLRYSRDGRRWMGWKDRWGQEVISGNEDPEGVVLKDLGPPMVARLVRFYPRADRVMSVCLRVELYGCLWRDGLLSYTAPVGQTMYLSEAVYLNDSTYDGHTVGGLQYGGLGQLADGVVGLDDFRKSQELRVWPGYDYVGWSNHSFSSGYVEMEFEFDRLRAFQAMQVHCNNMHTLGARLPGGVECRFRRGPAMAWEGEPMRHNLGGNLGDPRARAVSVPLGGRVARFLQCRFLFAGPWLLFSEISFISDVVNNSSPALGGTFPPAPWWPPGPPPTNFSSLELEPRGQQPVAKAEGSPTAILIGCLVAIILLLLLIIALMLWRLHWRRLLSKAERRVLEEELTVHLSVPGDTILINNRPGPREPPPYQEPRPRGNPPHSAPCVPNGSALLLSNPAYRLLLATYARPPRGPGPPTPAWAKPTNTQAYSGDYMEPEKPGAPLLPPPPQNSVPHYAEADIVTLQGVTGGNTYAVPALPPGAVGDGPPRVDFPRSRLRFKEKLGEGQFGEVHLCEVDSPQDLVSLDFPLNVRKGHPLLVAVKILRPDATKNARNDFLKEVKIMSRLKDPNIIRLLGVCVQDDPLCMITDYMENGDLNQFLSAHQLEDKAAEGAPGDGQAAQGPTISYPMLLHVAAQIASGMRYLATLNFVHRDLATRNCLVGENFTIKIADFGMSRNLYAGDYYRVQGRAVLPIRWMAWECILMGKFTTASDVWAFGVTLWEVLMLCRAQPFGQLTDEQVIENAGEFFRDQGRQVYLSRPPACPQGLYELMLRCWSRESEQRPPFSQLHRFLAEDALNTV
# Chain of Receptor-interacting serine/threonine-protein kinase 2 (O43353 whole entry, the tested form may be a part): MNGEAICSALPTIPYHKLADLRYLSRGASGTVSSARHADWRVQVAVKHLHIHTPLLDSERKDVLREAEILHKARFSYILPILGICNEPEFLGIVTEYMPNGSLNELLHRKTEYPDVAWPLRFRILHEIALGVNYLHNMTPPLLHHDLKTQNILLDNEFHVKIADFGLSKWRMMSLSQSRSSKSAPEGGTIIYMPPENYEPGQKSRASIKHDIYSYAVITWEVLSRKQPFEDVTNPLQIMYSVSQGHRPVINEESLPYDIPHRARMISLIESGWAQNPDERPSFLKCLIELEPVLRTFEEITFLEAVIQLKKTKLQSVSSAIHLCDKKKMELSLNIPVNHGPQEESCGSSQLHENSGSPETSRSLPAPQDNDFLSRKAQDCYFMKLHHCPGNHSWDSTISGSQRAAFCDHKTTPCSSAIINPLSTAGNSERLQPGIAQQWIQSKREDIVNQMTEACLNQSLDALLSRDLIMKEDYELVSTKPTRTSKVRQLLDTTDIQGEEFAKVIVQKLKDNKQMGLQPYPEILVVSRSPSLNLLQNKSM
# Chain of Calcium/calmodulin-dependent protein kinase type II subunit delta (Q13557 whole entry): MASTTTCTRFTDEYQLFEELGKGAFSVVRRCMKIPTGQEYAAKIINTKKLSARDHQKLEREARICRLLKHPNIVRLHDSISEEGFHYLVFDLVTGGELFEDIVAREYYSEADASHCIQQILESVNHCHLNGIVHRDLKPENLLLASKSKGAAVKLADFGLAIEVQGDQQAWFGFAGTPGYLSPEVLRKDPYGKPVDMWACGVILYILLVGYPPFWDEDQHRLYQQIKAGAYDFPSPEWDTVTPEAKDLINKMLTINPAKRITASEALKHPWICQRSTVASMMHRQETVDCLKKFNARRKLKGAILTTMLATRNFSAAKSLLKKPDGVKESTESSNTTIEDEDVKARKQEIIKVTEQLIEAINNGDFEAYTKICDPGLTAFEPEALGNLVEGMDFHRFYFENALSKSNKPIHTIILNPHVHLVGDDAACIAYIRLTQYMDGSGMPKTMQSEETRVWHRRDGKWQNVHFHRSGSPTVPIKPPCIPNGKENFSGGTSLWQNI
# Chain of Tyrosine-protein kinase BTK (Q06187 whole entry): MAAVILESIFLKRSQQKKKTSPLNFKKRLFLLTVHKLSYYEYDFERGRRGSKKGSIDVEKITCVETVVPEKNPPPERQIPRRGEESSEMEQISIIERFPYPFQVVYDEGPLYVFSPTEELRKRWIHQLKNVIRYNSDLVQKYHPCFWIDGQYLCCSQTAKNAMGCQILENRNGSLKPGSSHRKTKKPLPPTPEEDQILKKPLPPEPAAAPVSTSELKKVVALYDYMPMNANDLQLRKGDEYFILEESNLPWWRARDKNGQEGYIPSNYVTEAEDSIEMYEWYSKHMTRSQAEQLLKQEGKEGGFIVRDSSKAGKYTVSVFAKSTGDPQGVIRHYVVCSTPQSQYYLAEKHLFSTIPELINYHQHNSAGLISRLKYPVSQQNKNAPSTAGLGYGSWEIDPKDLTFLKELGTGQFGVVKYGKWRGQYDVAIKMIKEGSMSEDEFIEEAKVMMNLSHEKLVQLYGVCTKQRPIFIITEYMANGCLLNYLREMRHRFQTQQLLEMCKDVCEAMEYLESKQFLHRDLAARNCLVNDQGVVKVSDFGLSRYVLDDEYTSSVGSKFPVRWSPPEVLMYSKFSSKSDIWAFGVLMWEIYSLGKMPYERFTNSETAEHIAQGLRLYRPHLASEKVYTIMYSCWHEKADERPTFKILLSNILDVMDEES
SMILES,Kd [1],Kd [2],Kd [3],Kd [4],Kd [5],Kd [6],Kd [7],Kd [8]
O=C(NC[C@H](O)CO)c1ccncc1Nc1ccc(I)cc1F [PIMASERTIB],> 30 µM (inactive),> 30 µM (inactive),> 30 µM (inactive),> 30 µM (inactive),> 30 µM (inactive),> 30 µM (inactive),> 30 µM (inactive),> 30 µM (inactive)
NC[C@@](O)(c1ccc(Cl)cc1)c1ccc(-c2cn[nH]c2)cc1 [AT-13148],> 30 µM (inactive),> 30 µM (inactive),> 30 µM (inactive),> 30 µM (inactive),> 30 µM (inactive),> 30 µM (inactive),> 30 µM (inactive),> 30 µM (inactive)
C=CCN(/C=C1/C(=O)O[C@H](COC)[C@@]2(C)C1=C(O)C(=O)C1=C2[C@H](OC(C)=O)C[C@]2(C)C(=O)CC[C@@H]12)CC=C [SONOLISIB],> 30 µM (inactive),> 30 µM (inactive),> 30 µM (inactive),> 30 µM (inactive),> 30 µM (inactive),> 30 µM (inactive),> 30 µM (inactive),> 30 µM (inactive)
COc1cc2nccc(Oc3ccc(NC(=O)C4(C(=O)Nc5ccc(F)cc5)CC4)cc3)c2cc1OC [CABOZANTINIB],0.767 µM (active),0.209 µM (active),> 30 µM (inactive),> 30 µM (inactive),> 30 µM (inactive),> 30 µM (inactive),> 30 µM (inactive),> 30 µM (inactive)
C[C@@H]1COC(Nc2ccc3ncnc(Nc4ccc(OCc5nccs5)c(Cl)c4)c3c2)=N1 [VARLITINIB],0.81 µM (active),> 30 µM (inactive),> 30 µM (inactive),> 30 µM (inactive),> 30 µM (inactive),> 30 µM (inactive),> 30 µM (inactive),> 30 µM (inactive)
COc1ccc(-c2ccc3ncc4c(c3c2)n(-c2ccc(N3CCNCC3)c(C(F)(F)F)c2)c(=O)n4C)cn1 [BGT-226 FREE BASE],> 30 µM (inactive),> 30 µM (inactive),> 30 µM (inactive),> 30 µM (inactive),> 30 µM (inactive),> 30 µM (inactive),> 30 µM (inactive),> 30 µM (inactive)
CCc1cc2c(cc1N1CCC(N3CCOCC3)CC1)C(C)(C)c1[nH]c3cc(C#N)ccc3c1C2=O [ALECTINIB],> 30 µM (inactive),> 30 µM (inactive),> 30 µM (inactive),> 30 µM (inactive),> 30 µM (inactive),> 30 µM (inactive),> 30 µM (inactive),> 30 µM (inactive)
O=S(=O)(c1cccc2c(O)nccc12)N1CCCNCC1 [HYDROXYFASUDIL],> 30 µM (inactive),> 30 µM (inactive),> 30 µM (inactive),> 30 µM (inactive),> 30 µM (inactive),> 30 µM (inactive),> 30 µM (inactive),> 30 µM (inactive)
